Results as given in paper PMC12631574, “Structure–activity relationships of hydrophobic small molecule irreversible inhibitors of tissue transglutaminase” (RSC Medicinal Chemistry, 2025).
Like-named read-outs stand apart in the source and are kept apart here.

Tests used:
[1] = biological target: T1, tissue transglutaminase (TG2), C-terminal His-tag TG2 (Homo sapiens, UniProt P21980); assay: continuous AL5 hydrolysis assay of irreversible TG2 inhibition (kobs vs [I]/α); type: biochemical
T1 construct: host or cells: Novagen Rosetta 2 (DE3) E. coli
T1 sequence (P21980 1-687): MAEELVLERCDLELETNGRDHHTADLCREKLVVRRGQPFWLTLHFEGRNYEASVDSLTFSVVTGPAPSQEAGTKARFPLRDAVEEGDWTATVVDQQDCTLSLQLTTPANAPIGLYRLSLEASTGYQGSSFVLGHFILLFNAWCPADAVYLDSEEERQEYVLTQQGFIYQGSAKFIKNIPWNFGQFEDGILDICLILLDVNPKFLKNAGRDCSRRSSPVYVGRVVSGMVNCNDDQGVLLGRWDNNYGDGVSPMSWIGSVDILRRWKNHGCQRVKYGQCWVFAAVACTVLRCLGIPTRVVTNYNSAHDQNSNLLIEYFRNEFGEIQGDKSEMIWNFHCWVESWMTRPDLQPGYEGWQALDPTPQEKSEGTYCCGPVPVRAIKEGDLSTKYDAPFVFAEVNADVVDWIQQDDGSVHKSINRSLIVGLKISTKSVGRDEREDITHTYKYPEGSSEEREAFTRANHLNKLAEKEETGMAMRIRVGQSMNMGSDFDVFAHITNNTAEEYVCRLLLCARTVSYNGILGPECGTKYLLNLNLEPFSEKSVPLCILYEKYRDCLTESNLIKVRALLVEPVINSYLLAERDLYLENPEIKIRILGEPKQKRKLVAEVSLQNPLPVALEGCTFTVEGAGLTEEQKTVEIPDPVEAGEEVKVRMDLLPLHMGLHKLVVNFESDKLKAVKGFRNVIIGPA

[2] = parallel artificial membrane permeability assay (PAMPA), at Pharmaron; type: in vitro ADME
[3] = stability in human hepatocytes, at Pharmaron; type: in vitro ADME; conditions: 20-donor, pooled; for hepatocyte CLint: read-out: In vitro CLint; for half-life: human, hepatocytes, read-out: In vitro t1/2
[4] = incubation in phosphate buffer with no hepatocytes present; type: physicochemical; conditions: phosphate buffer 0.1 M, pH = 8.0, no hepatocytes present
[5] = solubility in inhibition assay conditions and stock solutions; type: physicochemical; conditions: inhibition assay mixture, DMSO not above 6%
human hepatocytes = tested on: human hepatocytes; set-up: method as in PMID 36846370; conditions: cited from earlier work
MDCK-MDR1 cells = tested on: MDCK-MDR1 cells; set-up: method as in PMID 39708924; conditions: cited from earlier work
[6] = irreversible inhibition, AL5 100 μM, pH 6.9, 25 °C, triplicate
[7] = supplement, kinetics data and fitting
[8] = Pe in cm s^−1, lower value is more permeable, read-out: −log[Pe (cm s^−1)] (converted)
[9] = inhibition efficiency, combined from kinact and KI

Row | Structure (SMILES) | kinact [1] | KI (inactivation) [1, 6] | KI (inactivation) [1, 7] | kinact/KI [1, 7] | Papp [2, 8] | further results
1 | C=CC(=O)NCC(=O)N1CCN(C(=O)C23CC4CC(CC(Cl)(C4)C2)C3)CC1 [Compound 25b, N-2-[4-[(3-Chloroadamantanecarbonyl)-1-piperazinyl]-2-oxoethyl]propenamide] | 0.0282 s⁻¹ | 1790 ± 170 nM | 1790 ± 170 nM | 941 ± 101 × 103 M-1min-1 | – | −log[Pe (cm s^−1)] ([2]; Pe in cm s^−1, lower value is more permeable): 5.85; Papp ([2]; read-out: Pe): 1.41 ×10⁻⁶ cm/s; hepatocyte CLint [3]: 6.91 µL/min/1e6 cells; half-life [3]: 200 min
2 | C=CC(=O)NCC(=O)N1CCN(C(=O)C23CC4CC(CC(I)(C4)C2)C3)CC1 [Compound 29, N-2-[4-[(3-Iodoadamantanecarbonyl)-1-piperazinyl]-2-oxoethyl]propenamide] | 0.0278 s⁻¹ | 1400 ± 120 nM | 1400 ± 120 nM | 1195 ± 112 × 103 M-1min-1 | 5.25 ×10⁻⁶ cm/s | hepatocyte CLint [3]: 69.2 µL/min/1e6 cells; half-life [3]: 20 min; stability in phosphate buffer [4]: degrade after 24 hours
3 | C=CC(=O)NCC(=O)N1CCN(C(=O)c2ccc(-c3ccc(C)cc3)cc2)CC1 [Compound 21i, N-2-[4-[((4′-Methyl-4-biphenyl)carbonyl)-1-piperazinyl]-2-oxoethyl]propenamide] | – | – | – | – | – | kinact/KI [1, 9]: INS; KI [1, 6]: INS; kinact [1, 6]: INS; solubility in assay conditions [5]: too insoluble in assay conditions
4 | C=CC(=O)NCC(=O)N1CCN(C(=O)c2ccc(Oc3ccccc3)cc2)CC1 [Compound 22h, N-2-[4-[((4-Phenoxyphenyl)carbonyl)-1-piperazinyl]-2-oxoethyl]propenamide] | – | – | – | – | – | kinact/KI [1, 9]: INS.; KI [1, 6]: INS.; kinact [1, 6]: INS.; solubility in assay conditions [5]: too insoluble in assay conditions
5 | C=CC(=O)NCC(=O)N1CCN(C(=O)c2ccccc2-c2ccc(C)cc2)CC1 [Compound 21c, N-2-[4-[((4′-Methyl-2-biphenyl)carbonyl)-1-piperazinyl]-2-oxoethyl]propenamide] | 0.00807 s⁻¹ | 8300 ± 2100 nM | 8280 ± 2080 nM | 58.5 ± 16.2 × 103 M-1min-1 | – | –
6 | C=CC(=O)NCC(=O)N1CCN(C(=O)c2cccc(-c3cccc(C)c3)c2)CC1 [Compound 21e, N-2-[4-[((3′-Methyl-3-biphenyl)carbonyl)-1-piperazinyl]-2-oxoethyl]propenamide] | 0.0104 s⁻¹ | 4400 ± 2800 nM | 4420 ± 2830 nM | 141 ± 98 × 103 M-1min-1 | – | –
7 | C=CC(=O)NCC(=O)N1CCN(C(=O)C2CCCCC2)CC1 [Compound 6d, N-2-[4-[(Cyclohexanecarbonyl)-1-piperazinyl]-2-oxoethyl]propenamide] | 0.0177 s⁻¹ | 7100 ± 1300 nM | 7140 ± 1340 nM | 149 ± 31 × 103 M-1min-1 | – | –
8 | C=CC(=O)NCC(=O)N1CCN(C(=O)c2cccc(-c3ccc(C)cc3)c2)CC1 [Compound 21f, N-2-[4-[((4′-Methyl-3-biphenyl)carbonyl)-1-piperazinyl]-2-oxoethyl]propenamide] | 0.0092 s⁻¹ | 2300 ± 600 nM | 2290 ± 660 nM | 241 ± 74 × 103 M-1min-1 | – | –
9 | C=CC(=O)NCC(=O)N1CCN(C(=O)C23CC4CC(C2)CC(c2ccccc2)(C4)C3)CC1 [Compound 25d, N-2-[4-[(3-Phenyladamantanecarbonyl)-1-piperazinyl]-2-oxoethyl]propenamide] | 0.0112 s⁻¹ | 690 ± 70 nM | 691 ± 67 nM | 972 ± 103 × 103 M-1min-1 | 13.2 ×10⁻⁶ cm/s | hepatocyte CLint [3]: 29.3 µL/min/1e6 cells; half-life [3]: ~47 min
10 | C=CC(=O)NCC(=O)N1CCN(C(=O)C23CC4CC(CC(C4)C2)C3)CC1 [EB-2-16, reference compound] | 0.0233 s⁻¹ | 2430 ± 190 nM | 2430 ± 190 nM | 576 ± 50 × 103 M-1min-1 | 1.55 ×10⁻⁶ cm/s | In vitro t1/2 (human hepatocytes): >120 (ref. [27]) min; susceptibility to P-glycoprotein-mediated efflux (MDCK-MDR1 cells; MDCK-MDR1 cells): not susceptible to P-glycoprotein-mediated efflux; diffusion across the membrane of MDCK-MDR1 cells (MDCK-MDR1 cells; bidirectional): excellent bidirectional diffusion
11 | C=CC(=O)NCC(=O)N1CCN(C(=O)C2CCCC2)CC1 [Compound 6c, N-2-[4-[(Cyclopentanecarbonyl)-1-piperazinyl]-2-oxoethyl]propenamide] | 0.00868 s⁻¹ | 13000 ± 1600 nM | 13000 ± 1600 nM | 40.0 ± 5.3 × 103 M-1min-1 | – | –
12 | C=CC(=O)NCC(=O)N1CCN(C(=O)C23CC4CC(CC(F)(C4)C2)C3)CC1 [Compound 25a, N-2-[4-[(3-Fluoroadamantanecarbonyl)-1-piperazinyl]-2-oxoethyl]propenamide] | – | 3150 ± 330 nM | 3150 ± 330 nM | – | – | –
13 | C=CC(=O)NCC(=O)N1CCN(C(=O)C23CC4CC(CC(Br)(C4)C2)C3)CC1 [Compound 25c, N-2-[4-[(3-Bromoadamantanecarbonyl)-1-piperazinyl]-2-oxoethyl]propenamide] | 0.0119 s⁻¹ | 650 ± 80 nM | 648 ± 85 nM | 1104 ± 162 × 103 M-1min-1 | 2.19 ×10⁻⁶ cm/s | stability in phosphate buffer [4]: degrade after 24 hours
